The text below walks through data of US8940861B2, “Variants of ancestral uricases and uses thereof” (Georgia Tech Research Corporation, priority 2010, dated 2015).

Assay [1] addresses T1, pig uricase, SEQ ID NO:10 (Sus scrofa, UniProt P16164).
T1 sequence (P16164 1-304): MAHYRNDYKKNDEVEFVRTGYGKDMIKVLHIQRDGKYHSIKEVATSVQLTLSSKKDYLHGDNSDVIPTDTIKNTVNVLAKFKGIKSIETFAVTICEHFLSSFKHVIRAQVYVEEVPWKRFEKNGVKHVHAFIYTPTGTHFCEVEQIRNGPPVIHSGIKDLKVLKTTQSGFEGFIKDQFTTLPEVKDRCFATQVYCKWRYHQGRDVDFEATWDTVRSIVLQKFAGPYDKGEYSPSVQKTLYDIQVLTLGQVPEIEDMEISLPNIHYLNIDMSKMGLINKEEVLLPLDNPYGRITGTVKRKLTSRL
The settings on record: 0.1M Na2HPO4/Na2H2PO4, pH 7.4; 24° C.

Assay [2] concerns pig-baboon chimeric uricase (amino acids 1-225 of SEQ ID NO:10 and amino acids 226-304 of SEQ ID NO:11). Put plainly: Uricolytic activity, A293 decrease, steady-state kinetics. The format is biochemical. As to conditions: 0.1M Na2HPO4/Na2H2PO4, pH 7.4; 24° C.
For assay [3], the system named is ancestral mammalian uricase Node 19 (four identical subunits), SEQ ID NO:2. The description is as above. The format is biochemical. The settings on record: 0.1M Na2HPO4/Na2H2PO4, pH 7.4; 24° C. The text has this: (§1) Uricases were designed using Ancestral Sequence Reconstruction (ASR) to reconstruct and resurrect ancestral forms of human uricase based upon an analysis of modern mammalian uricases. See generally Gaucher, “Ancestral sequence reconstruction as a tool to understand natural history and guide synthetic biology: Realizing (and extending) the vision of Zukerkandl and Pauling” in ANCESTRAL SEQUENCE RECONSTRUCTION, ed. David A. Liberles, pp. 20-33 (Oxford University Press, 2007). Ancestral uricase sequences corresponding to various nodes of the phylogenetic tree were inferred by analyzing modern mammalian uricase sequences (FIG. 1), and uricases were designed based upon those inferred sequences. Uricase subunits of the present invention may therefore comprise an amino acid sequence corresponding to the inferred amino acid sequence at one of the nodes highlighted in FIG. 1 (e.g., Node 18, Node 19, Node 26, Node 27, Node 30, Node 31 or Node 32) or to a variant of the inferred amino acid sequence at one of the nodes highlighted in FIG. 1.

Assay [4] has as its system ancestral mammalian uricase Node 27 (four identical subunits), SEQ ID NO:4. Described as above. The format is biochemical. As to conditions: phosphate buffered saline, pH 7.4; 24° C.
Text: as §1

Assay [5] deals with ancestral mammalian uricase Node 26 (four identical subunits), SEQ ID NO:3. Described as above. The format is biochemical. The settings on record: phosphate buffered saline, pH 7.4.
Text: as §1

What is called Km is the concentration of substrate that gives half-maximal velocity. The term kcat denotes the maximal rate divided by the concentration of active sites.

On to `O=c1[nH]c(=O)c2[nH]c(=O)[nH]c2[nH]1` [uric acid], for which the Vmax in assay [1] is given as 2.4 × 10^−3 μmol uric acid/min; in assay [2] it was 2.8 × 10^−3 μmol uric acid/min; in assay [3], 4.3 × 10^−3 μmol uric acid/min; in assay [4] it was 8.1 × 10^−4 μmol uric acid/min; in assay [5] (24° C.), 1.4 × 10^−3 μmol uric acid/min; in assay [5] (37° C.), 4.3 × 10^−3 μmol uric acid/min. The Km in assay [2] stood at 2.2 µM; in assay [3] it was 4 µM; in assay [4], 5.3 µM; in assay [5] (24° C.) it was 4.9 µM; in assay [5] (37° C.), 4.9 µM. Also, the kcat is 4.78 s⁻¹ in assay [2]; 5.42 s⁻¹ in assay [3]; 0.417 s⁻¹ in assay [4]; 1.25 s⁻¹ in assay [5] (24° C.); 3.75 s⁻¹ in assay [5] (37° C.).
